The text below walks through data of US6509328B1, “Glutamate receptor antagonists” (Hoffmann-La Roche Inc., priority 1999, dated 2003).

Where only a bound is given, the exact number is not on record here.

For orientation: melting point means the temperature of the solid-liquid transition. Turning to `N#Cc1cccc(C2=Nc3ccc(-c4cccs4)cc3NC(=O)C2)c1` [Example 24, 3-(4-Oxo-7-thiophen-2-yl-4,5-dihydro-3H-benzo[b][1,4]diazepin-2-yl)-benzonitrile], the melting point was > 250 °C (dec.). For the molecule `O=C1CC(c2ccsc2)=Nc2ccc(-c3ccccc3)cc2N1` [Example 29, 8-Phenyl-4-thiophen-3-yl-1,3-dihydro-benzo [b][1,4]diazepin-2-one], the melting point was 233 °C (dec.). As to `O=C1CC(c2sccc2Cl)=Nc2ccc(-c3ccccn3)cc2N1` [Example 23, 4-(3-Chloro-thiophen-2-yl)-8-pyridin-2-yl-1,3-dihydro-benzo[b][1,4]diazepin-2-one], the melting point is 220 to 225 °C (dec.). Turning to `N#Cc1ccc(F)c(C2=Nc3ccc(-c4ccccc4F)cc3NC(=O)C2)c1` [Example 103, 4-Fluoro-3-[7-(2-fluoro-phenyl)-4-oxo-4,5-dihydro-3H-benzo [b][1,4]diazepin-2-yl]-benzonitrile], the melting point worked out at 239 °C.

For `O=C1CC(c2cccc(C(F)(F)F)c2)=Nc2ccc(-c3ccccc3)cc2N1` [Example 32, 8-Phenyl-4-(3-trifluoromethyl-phenyl)-1,3-dihydro-benzo [b][1,4]diazepin-2-one], the melting point is 210 °C (dec.).

In turn, `N#Cc1cccc(C2=Nc3ccc(C4CC4)cc3NC(=O)C2)c1` [Example 111, 3-(7-Cyclopropyl-4-oxo-4,5-dihydro-3H-benzo [b][1,4]diazepin-2-yl)-benzonitrile] registered a melting point of 204 to 209 °C.

In the case of `N#Cc1cccc(C2=Nc3ccc(-c4cccc(F)c4)cc3NC(=O)C2)c1` [Example 96, 3-[7-(3-Fluoro-phenyl)-4-oxo-4,5-dihydro-3H-benzo [b][1,4]diazepin-2-yl]-benzonitrile], the melting point lay in the range of 232 to 235 °C. For the molecule `N#Cc1ccc(-c2ccc3c(c2)NC(=O)CC(c2cccc(-n4ccnc4)c2)=N3)cc1` [Example 66, 4-[2-(3-Imidazol-1-yl-phenyl)-4-oxo-4,5-dihydro-3H-benzo [b][1,4]diazepin-7-yl]-benzonitrile], the melting point is 209 to 213 °C (dec.). `N#Cc1cccc(C2=Nc3ccc(C#Cc4ccc(F)cc4)cc3NC(=O)C2)c1` [Example 145, 3-[7-(4-Fluoro-phenylethynyl)-4-oxo-4,5-dihydro-3H-benzo [b][1,4]diazepin-2-yl]-benzonitrile] returned a melting point of 245 to 246 °C. The value for `O=C1CC(c2sccc2Cl)=Nc2ccc(-c3ccccc3)cc2N1` [Example 38, 4-(3-Chloro-thiophen-2-yl)-8-phenyl-1,3-dihydro-benzo [b][1,4]diazepin-2-one] was 228 °C (dec.). The molecule `N#Cc1cccc(C2=Nc3ccc(C#Cc4ccccc4F)cc3NC(=O)C2)c1` [Example 131, 3-[7-(2-Fluoro-phenylethynyl)-4-oxo-4,5-dihydro-3H-benzo[b][1,4]diazepin-2-yl]-benzonitrile] displayed a melting point of 213 to 214 °C. Take `O=C1CC(c2cccc(C(F)(F)F)c2)=Nc2ccc(-c3ccc(OCc4ccccc4)nc3)cc2N1` [Example 42, 8-(6-Benzyloxy-pyridin-3-yl)-4-(3-trifluoromethyl-phenyl)-1,3-dihydro-benzo [b][1,4]diazepin-2-one]: the melting point was 195 °C (dec.). The value for `N#Cc1cccc(C2=Nc3ccc(CCc4ccccc4)cc3NC(=O)C2)c1` [Example 108, 3-(4-Oxo-7-phenethyl-4,5-dihydro-3H-benzo[b][1,4]diazepin-2-yl)-benzonitrile] was 212 to 214 °C; that for `Cc1cn(-c2nc(C3=Nc4ccc(-c5ccc(F)cc5)cc4NC(=O)C3)cs2)cn1` [Example 107, 8-(4-Fluoro-phenyl)-4-[2-(4-methyl-imidazol-1-yl)-thiazol-4-yl]-1,3-dihydro-benzo[b][1,4]diazepin-2-one] was 229 °C.

As to `N#Cc1cccc(C2=Nc3ccc(C#CC4=CCOCC4)cc3NC(=O)C2)c1` [Example 138, 3-[7-(3,6-Dihydro-2H-pyran-4-ylethynyl)-4-oxo-4,5-dihydro-3H-benzo [b][1,4]diazepin-2-yl]-benzonitrile], the melting point worked out at 238 °C.
